Experimental data as given in patent US12077503B2, “Substituted cyclic amides and their use as herbicides” (FMC CORPORATION, priority 2015, dated 2024).
Read-outs that look alike come from different tables or passages of the source.

Key:
[1] = tested on: pigweed (Amaranthus retroflexus); assay: Test A postemergence; assay type: in vivo; conditions: Amaranthus retroflexus, post-emergence, 240 h, 125 g ai/ha
Summary of the method: (§1)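 Treatment is preemergence as a directed soil spray after planting, or postemergence at the one- to two-leaf stage, with test chemical in a non-phytotoxic solvent mixture plus surfactant. Plants stay in the greenhouse about 10 d before visual injury scoring on a 0 to 100 scale versus untreated controls.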

[2] = tested on: giant foxtail (Setaria faberii); assay: Test A postemergence; assay type: in vivo; conditions: Setaria faberi, post-emergence, 240 h; for pest or weed control at 125 g/ha: 125 g ai/ha; for pest or weed control at 500 g/ha: 500 g ai/ha, visual injury, 0 to 100 scale (0 no effect, 100 complete control)
Summary of the method: as §1

corn (Zea mays) = assay: Test A postemergence; assay type: in vivo; conditions: Zea mays, post-emergence, 240 h; for Corn plant response rating (crop injury, 0 = no effect, 100 = complete kill) at 125 g/ha / plant injury at 125 g/ha: 125 g ai/ha; for Corn plant response rating (crop injury, 0 = no effect, 100 = complete kill) at 125 g/ha: Postemergence, visual injury after approximately 10 d, 0 to 100 scale where 0 is no effect and 100 is complete control; for plant injury at 125 g/ha / Corn plant response rating (crop injury, 0 = no effect, 100 = complete kill) at 500 g/ha: postemergence, approx. 10 d; for plant injury at 125 g/ha: visual injury on 0 to 100 scale (0 no effect, 100 complete control), read-out: Corn plant response rating; for Corn plant response rating (crop injury, 0 = no effect, 100 = complete kill) at 500 g/ha: 500 g ai/ha, visual injury, 0 to 100 scale (0 no effect, 100 complete control)
Summary of the method: as §1

[3] = tested on: barnyardgrass (Echinochloa crus-galli); assay: Test A postemergence; assay type: in vivo; conditions: Echinochloa crus-galli, post-emergence, 240 h; for pest or weed control at 125 g/ha: 125 g ai/ha; for pest or weed control at 500 g/ha: 500 g ai/ha, visual injury, 0 to 100 scale (0 no effect, 100 complete control)
Summary of the method: as §1

[4] = tested on: blackgrass (Alopecurus myosuroides); assay: Test A postemergence; assay type: in vivo; conditions: Alopecurus myosuroides, post-emergence, 240 h; for pest or weed control at 125 g/ha: 125 g ai/ha; for pest or weed control at 500 g/ha: 500 g ai/ha, visual injury, 0 to 100 scale (0 no effect, 100 complete control)
Summary of the method: as §1

[5] = Postemergence, visual injury after approximately 10 d, 0 to 100 scale where 0 is no effect and 100 is complete control, read-out: Plant response rating, Pigweed
[6] = Postemergence, visual injury after approximately 10 d, 0 to 100 scale where 0 is no effect and 100 is complete control, read-out: Plant response rating, Foxtail, Giant
[7] = Postemergence, visual injury after approximately 10 d, 0 to 100 scale where 0 is no effect and 100 is complete control, read-out: Plant response rating, Barnyardgrass
[8] = Postemergence, visual injury after approximately 10 d, 0 to 100 scale where 0 is no effect and 100 is complete control, read-out: Plant response rating, Blackgrass
[9] = postemergence, visual injury on 0 to 100 scale (0 no effect, 100 complete control), approx. 10 d, read-out: Pigweed plant response rating
[10] = postemergence, visual injury on 0 to 100 scale (0 no effect, 100 complete control), approx. 10 d, read-out: Foxtail, Giant plant response rating
[11] = postemergence, approx. 10 d, read-out: Plant response rating, Foxtail, Giant
[12] = postemergence, visual injury on 0 to 100 scale (0 no effect, 100 complete control), approx. 10 d, read-out: Barnyardgrass plant response rating
[13] = postemergence, approx. 10 d, read-out: Plant response rating, Barnyardgrass
[14] = postemergence, visual injury on 0 to 100 scale (0 no effect, 100 complete control), approx. 10 d, read-out: Blackgrass plant response rating
[15] = postemergence, approx. 10 d, read-out: Plant response rating, Blackgrass

Row | melting point [°C] | SMILES | pest or weed control at 125 g/ha [1, 5] [%] | pest or weed control at 125 g/ha [2, 6] [%] | Corn plant response rating (crop injury, 0 = no effect, 100 = complete kill) at 125 g/ha (corn (Zea mays)) [%] | pest or weed control at 125 g/ha [3, 7] [%] | pest or weed control at 125 g/ha [4, 8] [%] | pest or weed control at 125 g/ha [1, 9] [%] | pest or weed control at 125 g/ha [2, 10] [%] | pest or weed control at 500 g/ha [2, 11] [%] | plant injury at 125 g/ha (corn (Zea mays)) [%] | Corn plant response rating (crop injury, 0 = no effect, 100 = complete kill) at 500 g/ha (corn (Zea mays)) [%] | pest or weed control at 125 g/ha [3, 12] [%] | pest or weed control at 500 g/ha [3, 13] [%] | pest or weed control at 125 g/ha [4, 14] [%] | pest or weed control at 500 g/ha [4, 15] [%]
1 | 94 to 97 | C=CCOc1cccc(C2CN(C)C(=O)C2C(=O)Nc2cccc(F)c2F)c1 (centres unmarked) [Compound 933] | 0 | 90 | 40 | 90 | 20 | – | – | – | – | – | – | – | – | –
2 | 160 to 163 | CN1C[C@H](c2ccc(C(F)(F)F)cc2)[C@@H](C(=O)Nc2cccc(F)c2Br)C1=O [Compound 937] | 60 | 90 | 20 | 70 | 30 | – | – | – | – | – | – | – | – | –
3 | 118 to 121 | CN1CC(c2ccccc2OC(F)(F)C(F)F)C(C(=O)Nc2ccccc2F)C1=O (centres unmarked) [Compound 1053] | – | – | – | – | – | 0 | 0 | 0 | 0 | 0 | 0 | 0 | 0 | 0
4 | 192 to 196 | O=C1NCC(c2ccccc2OC(F)(F)C(F)F)C1C(=O)Nc1cccc(F)c1F (centres unmarked) [Compound 1054] | – | – | – | – | – | 0 | 0 | 0 | 0 | 0 | 0 | 0 | 0 | 0
